Results on one molecule are retold here after US20180256496A1, “CONTROLLED-RELEASE FORMULATIONS” (Camurus AB, priority 2015, published 2018).

Details of this series: species or system dog (beagle). The settings on record: dog, in vivo, sc. As to the method:
The in vivo release profiles of granisetron and buprenorphine after subcutaneous injection of Formulations 7A and 7B (Example 7) in dog (beagle) was evaluated using the doses set out in Table 13. The animals were dosed on Days 1 and 8 with the respective formulation.
A validated bioanalytical method was used for the determination of GRN in dog plasma. The analytical method employed liquid chromatography with tandem mass spectrometric detection. The lower limit of quantification of the analytical method was 0.05 ng/mL. The calibration curve ranged from 0.05 to 50.0 ng/mL. Samples above the upper limit of quantitation were diluted into range using control beagle K2-EDTA plasma.

For `CN1[C@@H]2CCC[C@H]1C[C@@H](NC(=O)c1nn(C)c3ccccc13)C2` [granisetron], the “dose linearity with respect to exposure (AUC)” value is “dose linearity was indicated”.
